Numbers after ± are expanded uncertainties.
Assay: xn = mol fraction of the nth substance listed
Conditions: 623.15 K, Liquid, Vibrating tube method

CO [methanol] + O
mass density (20000 kPa, x1 = 0.04): 554.98 ± 25 kg/m3
mass density (20000 kPa, x1 = 0.09): 499.06 ± 19 kg/m3
mass density (20000 kPa, x1 = 0.15): 466.53 ± 22 kg/m3
mass density (20000 kPa, x1 = 0.18): 408.88 ± 62 kg/m3
mass density (20000 kPa, x1 = 0.2): 310.04 ± 46 kg/m3
mass density (20000 kPa, x1 = 0.25): 240.45 ± 19 kg/m3
mass density (20000 kPa, x1 = 0.38): 198.52 ± 14 kg/m3
mass density (20000 kPa, x1 = 0.57): 192.93 ± 12 kg/m3
mass density (20000 kPa, x1 = 0.59): 193.68 ± 12 kg/m3
mass density (20000 kPa, x1 = 0.73): 195.58 ± 11 kg/m3
mass density (20000 kPa, x1 = 0.9): 203.5 ± 11 kg/m3
mass density (20000 kPa, x1 = 0.95): 203.61 ± 11 kg/m3
mass density (25000 kPa, x1 = 0.06): 592.54 ± 13 kg/m3
mass density (25000 kPa, x1 = 0.1): 564.26 ± 100 kg/m3
mass density (25000 kPa, x1 = 0.19): 481.28 ± 22 kg/m3
mass density (25000 kPa, x1 = 0.29): 388.57 ± 21 kg/m3
mass density (25000 kPa, x1 = 0.38): 335.66 ± 14 kg/m3
mass density (25000 kPa, x1 = 0.55): 284.19 ± 13 kg/m3
mass density (25000 kPa, x1 = 0.8): 268.34 ± 12 kg/m3
mass density (30000 kPa, x1 = 0.07): 599.12 ± 24 kg/m3
mass density (30000 kPa, x1 = 0.09): 578.83 ± 15 kg/m3
mass density (30000 kPa, x1 = 0.12): 569.12 ± 14 kg/m3
mass density (30000 kPa, x1 = 0.19): 536.54 ± 14 kg/m3
mass density (30000 kPa, x1 = 0.47): 401.25 ± 14 kg/m3
mass density (30000 kPa, x1 = 0.54): 383.13 ± 26 kg/m3
mass density (30000 kPa, x1 = 0.76): 350.39 ± 12 kg/m3
mass density (35000 kPa, x1 = 0.09): 603.89 ± 15 kg/m3
mass density (35000 kPa, x1 = 0.18): 552.55 ± 13 kg/m3
mass density (35000 kPa, x1 = 0.38): 476.16 ± 13 kg/m3
mass density (35000 kPa, x1 = 0.48): 449.31 ± 12 kg/m3
mass density (35000 kPa, x1 = 0.55): 432.87 ± 12 kg/m3
mass density (35000 kPa, x1 = 0.63): 422.11 ± 11 kg/m3
mass density (35000 kPa, x1 = 0.77): 406.97 ± 11 kg/m3
mass density (35000 kPa, x1 = 0.87): 397.04 ± 11 kg/m3

Source: the NIST ThermoML archive (doi:10.1016/j.fluid.2010.10.005)
